“And” between values parts separate entries of the source, which are not always exact repeats. Equal values may be shown once.
Columns and labels:
[1] = test system: Human acute promyelocytic leukemia HL-60 cells; assay: Sonodynamic therapy survival assay, screening of sonosensitizers in vitro; assay type: cell-based; conditions: for Mean - DMSO Bg: mean survival relative to DMSO only (100.0); for Survival, % Mean / Survival, %: insonated HL-60 cells; for Survival, %: single determinations
Description: This screening assay makes use of human promyelocytic leukemia cells growing in suspension culture. The transducer of an UltraMax ultrasound generator for physiotherapy was adapted for in vitro studies by fitting a tissue culture-compatible Teflon cuff such that cell suspensions could be conveniently insonated. The following diagrams represent the equipment employed.
Human acute promyelocytic leukemia HL-60 cells (ATCC No CCL-240) were maintained in RPMI 1640 cell culture medium supplemented with 7 g/L of L-glutamine (Gibco, Grand Island N.Y.), 10% fetal bovine serum (Cansera), and 1% penicillin-streptomycin-neomycin (Gibco), buffered with NaHCO3 to pH 7.4. They were incubated at 37° C. in a humidified atmosphere of 95% air, 5% CO2, and maintained at cell densities between 2.0×10^5 to 1.0×10^6 cells/mL. For insonations in the presence of Hp (a porphyrin positive control) or hypocrellin test compounds, cells were brought to approximately 1.0×10^6 cells/mL, incubated with the putative sensitizer at 37° C. for 2 hours in T-flasks, equilibrated for 30 minutes at room temperature, resuspended and insonated. All procedures took place in low-light conditions to avoid spurious photosensitization. Cells were gently resuspended for 10 seconds before insonation. […] Stock sensitizer was prepared by slowly adding RPMI-1640 medium to the appropriate volume at final sensitizer concentrations between 0.3 mM and 1 mM.
Aliquots of cells were withdrawn prior to insonation to serve as the original value for cell survival. Cells were suspended in Isoton diluent and counted in a Coulter electronic particle counter. Insonation proceeded at a power density of 2 W, at times varying between 3- and 10 seconds to effect cytotoxicity by sonosensitization. Control cultures were subjected to the appropriate dose of ultrasound, in the presence of DMSO, and the absence of the test sonosensitizer. Following ultrasound treatment, aliquots of the cell suspension were withdrawn for counting as above, and the survival fraction, S, was calculated as the fraction: S=(Cell number following insonation/cell number prior to insonation)×100. Results:
HL-60 cells were treated with perylenequinone sensitizers and insonated as described above. The surviving fractions were plotted against sensitizer concentration. […] Cell survival decreased steeply over the next two decades of sensitizer concentration.

[2] = test system: EMT6 murine mastocytoma in vitro; assay: Photosensitizing potential: LD50 for a fixed dose of light; assay type: cell-based
[3] = test system: EMT6 murine mastocytoma in vitro; assay: Sonosensitizing potential: LD50 for a fixed dose of ultrasound; assay type: cell-based
[4] = test system: syngeneic murine mastocytoma, EMT6; assay: Efficiency of DMHB in vivo: SDT of EMT6 tumors in Balb/c mice; conditions: Balb/c mice with EMT6 flank tumors, DMHB i.p. 50 μM total body concentration, ultrasound 1 MHz 0.2 W/cm^2 10 min after 48 h; FIG. 2
Experimental: We explored the use of DMHB in Balb/c mice engrafted in the flank with the syngeneic murine mastocytoma, EMT6. The mice were inoculated subcutaneously with 1.0×10^5 EMT6 tumor cells in sterile injectable saline. Within 7 days, detectable tumors are evident. Mice were randomized into a control group and a SDT treatment group, which differed only in that the sonosensitizer was not present in the drug solvent (see below). Fresh DMHB was dissolved in mineral oil, and injected intraperitoneally into each mouse to achieve a total body concentration of 50 μM. Following a an interval of 48 h for biodistribution of the sensitizer, the mice were lightly anesthetized with Metafane, and placed on a 2% agarose gel, with the tumor lying in a depression of the gel which was juxtaposed to the transducer of an UltraMax physiotherapy ultrasound generator. Ultrasound was applied at a frequency of 1 MHz, at a power density of 0.2 W/cm^2, for a 10-minute period. The maximum energy applied to the tumor volume was approximately 500 J. Tumor growth was monitored daily by caliper measurements in three mutually orthogonal planes. Tumor volume was calculated from the expression, V=π/6×d1×d2×d3 where V=volume (mm^3), and d1,2, and 3 are the three mutually orthogonal diameters. The endpoint for the assay was the proportion of tumors reaching 4 times treatment volume, which was plotted as a function of time. […]

[5] = HL-60 cells, fixed dose and energy of ultrasound

CC1=C(CCC(=O)O)c2cc3[nH]c(cc4nc(cc5[nH]c(cc1n2)c(C)c5C(C)O)C(C)=C4C(C)O)c(C)c3CCC(=O)O (stereo not shown) [Hp, hematoporphyrin, reference compound]
LD50 [1, 5]: 1.0 mM

Demethylated-HB [DMHBa]
Photosensitizing Potential (Molar Concentration which exerts LD50) [2]: 3.0 µM
Sonosensitizing Potential (Molar Concentration which exerts LD50) [3]: 1.0 mM

Methylamine-Hypocrellin B [HBMA-IV]
Photosensitizing Potential (Molar Concentration which exerts LD50) [2]: 1.0 µM
Sonosensitizing Potential (Molar Concentration which exerts LD50) [3]: None

2-(N,N-dimethyl-amino) propylamine-Hypocrellin B [HBDD-R1]
Sonosensitizing Potential (Molar Concentration which exerts LD50) [3]: 1.0 mM

Ethylenediamne-Hypocrellin B [HBED-R2]
Photosensitizing Potential (Molar Concentration which exerts LD50) [2]: 4.0 µM
Sonosensitizing Potential (Molar Concentration which exerts LD50) [3]: None

2-morpholino-ethylaminated HB [HBAM-R1]
Photosensitizing Potential (Molar Concentration which exerts LD50) [2]: 4.0 µM
Sonosensitizing Potential (Molar Concentration which exerts LD50) [3]: None

COc1c2c3c4c(c(OC)c(=O)c5c(O)cc(OC)c(c6c(OC)cc(O)c(c1=O)c63)c54)[C@@H](C(C)=O)[C@@](C)(O)C2 [HA, Hypocrellin A, reference compound]
Photosensitizing Potential (Molar Concentration which exerts LD50) [2]: 4.0 µM
Sonosensitizing Potential (Molar Concentration which exerts LD50) [3]: None

demethoxy hypocrellin B [DMHB]
tumor growth [4]: tumor growth is inhibited
maximum sonotoxic effect compared with Hp control ([1]; HL-60 cells): comparable to that of the Hp control
LD50 [1, 5]: approximately 100 μM
difference of LD50 versus hematoporphyrin (Hp) control [1, 5]: 10 fold
sonotoxicity ([1]; HL-60 cells, up to 100 μM): negligible sonotoxicity
Mean - DMSO Bg ([1]; 1 μM DMHB): 83.0%
Mean - DMSO Bg ([1]; 10 μM DMHB): 71.1%
Mean - DMSO Bg ([1]; 100 μM DMHB): 63.2%
Survival, % Mean ([1]; DMSO + 1 μM DMHB): 41.1%
Survival, % Mean ([1]; DMSO + 10 μM DMHB): 35.2%
Survival, % Mean ([1]; DMSO + 100 μM DMHB): 31.3%
Survival, % ([1]; DMSO + 1 μM DMHB): 41.8% and 48.2% and 33.5%
Survival, % ([1]; DMSO + 10 μM DMHB): 37.3% and 43.3% and 24.9%
Survival, % ([1]; DMSO + 100 μM DMHB): 30.7% and 39.4% and 23.7%

CCCCNc1c2c3c4c(c(OC)c(=O)c5c(O)cc(OC)c(c6c(OC)cc(O)c(c1=O)c63)c54)CC(C)=C2C(C)=O [DMHBb, 2-butylamino-2-demethoxy-Hypocrellin B]
Photosensitizing Potential (Molar Concentration which exerts LD50) [2]: 0.1 µM
Sonosensitizing Potential (Molar Concentration which exerts LD50) [3]: 0.1 mM

— US20050143406A1, “Amino-substituted hypocrellins for use as sonosensitizers” (priority 2002, published 2005)
